Drawing on patent US8609585B2 (priority 2008, dated 2013), this text covers Actual control value for 2 molecules.

Assay type in all cases: in vivo
For assay [1], the system named is Phytophthora infestans, pathogen of tomato late blight. The settings on record: foliage application.
Assay [2] concerns Pythium ultimum, pathogen of cucumber damping-off. Description: Cucumber damping-off control test, seed treatment (Test Example 2). On the procedure: (§1) Control value=100(A−B)/A “Equation 1”
Generally, the control value expected for the case in which the given two kinds of active ingredient compounds are mixed and used for the treatment, the so-called control value expectation is calculated from the following Colby's calculating equation. E=X+Y−(X×Y)/100 “Equation 2”
E: Control value (%) expected for the case in which active ingredient compound A in M ppm or in M g per 100 kg of seeds and active ingredient compound B in N ppm or in N g per 100 kg of seeds are mixed and used for treatment (hereinbelow referred to as “control value expectation”) “Synergetic effect(%)”=(Actual control value)×100/(Control value expectation)
An acetone solution of the compound (1b) and an acetone solution of ethaboxam were mixed to prepare mixed liquids containing the compound (1b) and ethaboxam in predetermined concentration. These mixed liquids were adhered on the surface of cucumber (Sagamihanjiro) seeds and allowed to stand still overnight to obtain treated seeds. A plastic pot was filled with sandy soil and the treated seeds were disseminated on it. Then the seeds were covered with sandy soil which had been mixed with a bran medium on which Pythium ultimum, pathogen of cucumber damping-off, had been allowed to grow. They were irrigated and allowed to grow at 18° C. under humidity for 13 days, and thereafter control effect was checked. The incidence of disease was calculated by Equation 3 and the control value was calculated by Equation 1 based on the incidence of disease.
As a comparison, acetone solutions containing the compound (1b) in the predetermined concentration and an acetone solution containing ethaboxam in the predetermined concentration were prepared and subjected to similar tests. Incidence of disease=(Number of no emerging seedlings and number of seedlings in which development of disease was observed)×100/(Number of total disseminated seeds) “Equation 3”

Assay [3] relates to Plasmopara viticola, pathogen of grape downy mildew. Description: Grape downy mildew control test, foliage application (Test Example 3).
Text: as §1
A plastic pot was filled with sandy soil, and grape (Berry A) was then disseminated. The grape was allowed to grow in a green house for 40 days. A wettable powder of the compound (1b) and a wettable powder of ethaboxam were respectively diluted with water and then tank-mixed so as to prepare tank-mixed liquids containing compound (1b) and ethaboxam in predetermined concentration. The tank-mixed liquids were subjected to foliage application such that they could be sufficiently adhered to the underside of the leaves of the aforementioned grape plants. After the foliage application, the plants were air-dried. Thereafter, an aqueous suspension of sporangia of Plasmopara viticola, pathogen of grape downy mildew, was sprayed on the grape plants to inoculate the pathogen. They were placed at 23° C. under high humidity for one day after the inoculation, cultured in a greenhouse at 23° C. for 5 days. The grape plants were thereafter placed at 23° C. under high humidity for one day and infected area was checked.
As a comparison, the respective wettable powders described above were diluted with water in predetermined concentration so as to prepare compound (1b) liquids and a ethaboxam liquid respectively and they were subjected to similar disease control test. In order to calculate the control value, the incidence of disease was also determined in the case in which the plants had not been treated with the agent. The relative incidence of disease of each treated area was determined as the incidence of disease of the area assuming that the incidence of disease of untreated area was represented as 100, and the control value was calculated by Equation 1 based on the incidence of disease thus determined.

Read-outs that look alike come from different tables or passages of the source.

For `CNC(=O)C(OC)c1ccccc1COc1cc(C)ccc1C` (racemic) [Compound (1b)], the Actual control value in assay [1] (compound (1b) 10 ppm alone) was found to be 5%; in assay [1] (compound (1b) 50 ppm alone), 25%; in assay [2] (compound (1b) 5 g ai/100 kg-seed alone), 6.7%; in assay [2] (compound (1b) 10 g ai/100 kg-seed alone) it was 6.7%; in assay [2] (compound (1b) 20 g ai/100 kg-seed alone) it was 13%; in assay [3] (compound (1b) 2 ppm alone), 2%.
Consider `CCNc1nc(CC)c(C(=O)NC(C#N)c2cccs2)s1` (stereo not shown) [Ethaboxam, ethaboxam, reference compound], for which the Actual control value in assay [1] (ethaboxam 0.4 ppm alone) is listed as 10%; in assay [2] (ethaboxam 10 g ai/100 kg-seed alone), 73%; in assay [3] (ethaboxam 0.4 ppm alone), 1%; in assay [3] (ethaboxam 2 ppm alone), 35%.
